# Reference: PMC4166935, “Toward Biophysical Probes for the 5-HT3 Receptor: Structure−Activity Relationship Study of Granisetron Derivatives” (Journal of Medicinal Chemistry, 2010)
# Where two headings read alike, the source gives them in different places.
# Experiments:
# human 5-HT3A receptor = target: T1, human 5-HT3A receptor (Homo sapiens, UniProt P46098); experiment: [3H]granisetron competition binding, HEK293 cell membranes stably expressing h5-HT3AR
# T1 construct: expressed in transfected cells; cell membranes
# T1 sequence (P46098 24-478): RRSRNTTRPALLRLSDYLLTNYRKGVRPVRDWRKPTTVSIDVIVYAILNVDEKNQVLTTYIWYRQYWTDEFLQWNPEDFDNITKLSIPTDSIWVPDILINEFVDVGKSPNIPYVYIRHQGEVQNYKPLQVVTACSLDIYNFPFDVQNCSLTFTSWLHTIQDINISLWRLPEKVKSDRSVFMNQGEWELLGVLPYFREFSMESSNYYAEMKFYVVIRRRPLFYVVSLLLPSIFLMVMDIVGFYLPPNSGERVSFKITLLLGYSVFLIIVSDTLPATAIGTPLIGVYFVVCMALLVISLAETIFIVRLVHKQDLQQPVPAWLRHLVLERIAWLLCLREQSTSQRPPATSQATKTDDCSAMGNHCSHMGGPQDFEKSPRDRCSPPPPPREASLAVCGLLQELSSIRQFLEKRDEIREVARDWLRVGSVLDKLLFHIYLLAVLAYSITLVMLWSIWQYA
# Description: Materials and cell culture maintenance
# All cell culture reagents were obtained from Gibco BRL (Paisley, UK), except foetal calf serum which was from Labtech International (Ringmer, UK). [3H]granisetron (63.5 Ci/mmol) was from PerkinElmer (Boston, Massachusetts, USA).
# Human embryonic kidney (HEK)-293 cells were maintained on 90 mm tissue culture plates at 37°C and 7% CO2 in a humidified atmosphere. Cells were cultured in DMEM:F12 (Dulbecco’s modified Eagle medium/nutrient mix F12 (1:1)) with GlutaMAX™ I containing 10% foetal calf serum and passaged when 90% confluent.
# Receptor expression and radioligand binding
# HEK-293 cells stably expressing the human 5-HT3A subunit (accession number: P46098) were scraped into 1 mL of ice-cold HEPES buffer (10 mM, pH 7.4) and frozen at –20°C.
# After thawing, they were spun at 13,000 rpm for 1 min, resuspended and 50 μg of cell […]
# Competition binding (12 points) was performed on at least three separate plates of cells.
# Nonspecific binding was determined using 10 μM quipazine or other competitive antagonist.
# Reactions were incubated for at least 1 h at 4°C and terminated by vacuum filtration, using a Brandel cell harvester, onto GF/B filters presoaked in 0.3% polyethyleneimine. Radioactivity was determined by scintillation counting using a Beckman LS6000SC (Fullerton, CA, USA).
# Competition binding data were analyzed by iterative curve fitting (GraphPad Prism v3.02, GraphPad Software, San Diego, CA, USA), according to the equation: […]
# where [L] is the concentration of ligand present, BL is the binding in the presence of ligand […]
# the concentration of L which gives a binding equal to (Bmax + Bmin)/2, and nH is the Hill coefficient. Ki values were calculated from IC50 values using the Cheng–Prusoff equation: […]
# where Ki is the equilibrium dissociation constant for binding of the unlabelled antagonist, [L] is the concentration of radioligand and Kd is the equilibrium dissociation constant of the radioligand. Values are presented as mean ± SEM.
# 5-HT3 receptor = test system: 5-HT3 receptor; design: method as in earlier work; conditions: cited from earlier work
# h5-HT3AR in HEK293 cells = target: T2, h5-HT3AR in HEK293 cells (Homo sapiens, UniProt P46098); experiment: Confocal labeling of HEK293 cells stably transfected with h5-HT3AR with fluorescent probe 16; assay type: cell-based; conditions: 10 μM quipazine with 10 nM 16 for 10 min
# T2 sequence (P46098 24-478): T1 sequence (P46098 24-478)
# Description: To confirm the validity of this hypothesis, we attached a BODIPY FL fluorophore at this position (Scheme 3) to create fluorescent analogue 16 (BFL-GR). […] Similar images have previously been obtained using fluorescein, rhodamine 6G, and cyanine Cy5 dyes attached via a linker at a similar position of ondansetron, another high-affinity 5-HT3AR antagonist.[30]
# Figure 3 Labeling of HEK293 cells stably transfected with h5-HT3AR with 16. Cells were incubated in 10 nM 16 for 10 min with (B) or without (A) 10 μM quipazine, washed, mounted, and then observed in a confocal microscope.[31] […] Unlabeled areas are nuclei. […] Scale bar represents 20 μm.
# [1] = competition with 1 nM [3H]granisetron, HEK293 cell membranes stably expressing h5-HT3AR, read-out: Ki (nM) mean ± SEM
# [2] = Ki (nM) mean ± SEM, competition with 1 nM [3H]granisetron, HEK293 cell membranes stably expressing h5-HT3AR
structure (smiles),measurement,setting,value
CN1C2CCCC1CC(NC(=O)c1nn(C)c3cc(OCc4ccccc4)ccc13)C2 (stereo not drawn) [4c],Ki,human 5-HT3A receptor; [1],749 ± 183 nM
CN1C2CCCC1CC(NC(=O)c1nn(C)c3c(O)cccc13)C2 (stereo not drawn) [5a],potency compared to granisetron,5-HT3 receptor,as potent as granisetron
COc1cccc2c1c(C(=O)NC1CC3CCCC(C1)N3C)nn2C (stereo not drawn) [2b],Ki,human 5-HT3A receptor,26.3 ± 7.4 nM
COc1cccc2c(C(=O)NC3CC4CCCC(C3)N4C)nn(C)c12 (stereo not drawn) [5b],Ki,human 5-HT3A receptor,71.1 ± 8 nM
"c1ccc2nc(N3CCNCC3)ccc2c1 [Quipazine, quipazine]",displacement of 16 from its binding sites,h5-HT3AR in HEK293 cells,has displaced 16 from its binding sites
CN1C2CCCC1CC(NC(=O)c1nn(C)c3c(OCc4ccccc4)cccc13)C2 (stereo not drawn) [5c],Ki,human 5-HT3A receptor; [2],0.23 ± 0.03 nM
same,affinity for 5-HT3AR compared to 1,human 5-HT3A receptor; comparison with granisetron (1),equal or exceed the affinity measured for 1
CN1C2CCCC1CC(NC(=O)c1nn(C)c3cccc(OCc4ccccc4)c13)C2 (stereo not drawn) [2c],Ki,human 5-HT3A receptor; [2],375 ± 61 nM
CN1C2CCCC1CC(NC(=O)c1nn(C)c3ccc(OCc4ccccc4)cc13)C2 (stereo not drawn) [3c],Ki,human 5-HT3A receptor; [1],3030 ± 956 nM
